The results in this text go back to patent US10106782B2, “High-titer HCV full-length genotype 2B infectious cell culture systems and applications thereof” (Hvidovre Hospital, priority 2013, dated 2018).

“Also recorded” adds a separate entry of the source. Where only a bound is given, the exact number is not on record here.

Data set [1] has as its system genotype 1a (strain TN) full-length virus. The data set is described as follows: Antiviral treatment of HCV infected Huh7.5 cultures, high throughput assay, virus TN. The data set is classed as cell-based, hepatitis C virus. The note with it: for inhibition of virus (concentration-response): TN(1a) in Huh7.5 cells, non-cytotoxic drug concentrations; for EC50 / sensitivity of virus, stated in words: TN(1a), numbers only in FIG. 11. The procedure:
(§1) HCV infected cultures were treated with NS3 Protease, NS5A, and NS5B polymerase inhibitors (purchased from Acme Bioscience) in a high throughput assay. Immunostaining of fixed 96-well plates was performed using anti-core C7- and anti-NS5A 9E10 at dilutions 1/450 and 1/1000, respectively.
(§2) Concentration-response curves and EC50 values were calculated. The non-cytotoxic dose ranges for all drugs were determined with a cytotoxicity assay (CellTiter 96 AQueous One Solution Cell Proliferation Assay, Promega).
(§3) HCV genetic divergence influences the sensitivity to lead direct acting antivirals. Our developed full-length culture systems permit the study of frontline HCV DAAs in the context of the complete HCV life cycle. Thus, we determined the efficacy of DAAs targeting different viral proteins against genotype 1a (strain TN), 2a (strain J6 and recombinant J6core-NS2/JFH18, referred to as JFH1, since it has the JFH1 protease, NS5A and NS5B), and 2b (strains DH8, J8, and DH10). For 2b viruses we used 3rd passage DH8_LSG, 5th passage J8cc, and 3rd passage DH10_LSG (FIGS. 6-10).

Data set [2] concerns genotype 2b strain DH10 (3rd passage DH10_LSG). As to the kind of experiment: Antiviral treatment of HCV infected Huh7.5 cultures, high throughput assay, virus DH10. The conditions noted are these: DH10(2b) in Huh7.5 cells; non-cytotoxic drug concentrations. The data set is classed as cell-based, hepatitis C virus. The procedure: as §1, §2, §3
Data set [3] concerns genotype 2a (strain J6) full-length virus. As to the kind of experiment: Antiviral treatment of HCV infected Huh7.5 cultures, high throughput assay, virus J6. It is filed as cell-based, hepatitis C virus. The note with it: for inhibition of virus (concentration-response): J6(2a) in Huh7.5 cells, non-cytotoxic drug concentrations; for EC50 / sensitivity of virus, stated in words: J6(2a), numbers only in FIG. 11. The procedure:
as §1, §2, §3

The test system of data set [4] is genotype 2b strain DH8 (3rd passage DH8_LSG). As to the kind of experiment: Antiviral treatment of HCV infected Huh7.5 cultures, high throughput assay, virus DH8. The conditions noted are these: DH8(2b) in Huh7.5 cells; non-cytotoxic drug concentrations. The data set is classed as cell-based, hepatitis C virus. The procedure:
as §1, §2, §3

Data set [5] relates to genotype 2b strain J8 (5th passage J8cc). As to the kind of experiment: Antiviral treatment of HCV infected Huh7.5 cultures, high throughput assay, virus J8. The data set is classed as cell-based, hepatitis C virus. The conditions noted are these: for inhibition of virus (concentration-response): J8(2b) in Huh7.5 cells, non-cytotoxic drug concentrations. The procedure: as §1, §2, §3

Data set [6] has as its system 2a recombinant J6core-NS2/JFH1, referred to as JFH1. The data set is described as follows: Antiviral treatment of HCV infected Huh7.5 cultures, high throughput assay, virus JFH1. The data set is classed as cell-based, hepatitis C virus. The conditions noted are these: for inhibition of virus (concentration-response): JFH1(2a) in Huh7.5 cells, non-cytotoxic drug concentrations. The procedure:
as §1, §2, §3

The test system of data set [7] is Huh7.5 cells. The data set is described as follows: Transfection of Huh7.5 cells with RNA transcripts of full-length HCV recombinants. It is filed as cell-based. The note with it: for HCV positive cells detected / HCV infectivity titers: after transfection; for spread of infection (≥80% HCV-antigen positive cells): day after transfection. The procedure:
(§4) Transfection and passage of recombinant full-length HCV in Huh7.5 cells. Transfections with RNA transcripts were performed as reported. For viral passage, cell free supernatants were incubated with […] Huh7.5 cells overnight. Cultures were split every 2-3 days and progression of infection was monitored by immunostaining on cells seeded in slides and co-stained with primary antibodies anti-core C7-50 (Enzo Life Sciences) and anti-NS5A 9E108, at dilution 1/25010. Infectivity titers expressed as Log 10 Focus Forming Units (FFU)/mL were determined as described. To improve staining, we used a mixture of anti-core C7- and anti-NS5A 9E10 at dilutions 1/450 and 1/1000, respectively. HCV RNA titers (IU/mL) on passage supernatants with peak infectivity titers were determined as previously described.

In data set [8] the test system is Huh7.5 cells. As to the kind of experiment: Viral passage of recombinant full-length HCV to naive Huh7.5 cells. The data set is classed as cell-based. The procedure: as §4

Take `CC(C)(C)C#Cc1cc(N(C(=O)[C@H]2CC[C@H](C)CC2)[C@H]2CC[C@H](O)CC2)c(C(=O)O)s1` [VX-222]: the “inhibition of virus (concentration-response)” value (shortened to “inhibition of virus”) in data set [1] was “inhibited TN(1a) in a dose dependent manner”; in data set [2] it was “no or very limited inhibition; also recorded: not inhibited”; in data set [3], “no or very limited inhibition; also recorded: not inhibited”; in data set [4], “no or very limited inhibition; also recorded: not inhibited”; in data set [5], “no or very limited inhibition; also recorded: not inhibited”; in data set [6], “no or very limited inhibition; also recorded: not inhibited”. The “EC50 / sensitivity of virus, stated in words” value (shortened to “EC50 / sensitivity of virus”) in data set [1] is “most potent inhibitor”.
Turning to “DH8CF: full-length HCV genotype 2b consensus clone of strain DH8, SEQ ID NO 1, KF420335”, in the data set on Huh7.5 cells [7], the “HCV positive cells detected” value is recorded as “No HCV positive cells were detected”.
As to `C=C[C@@H]1C[C@]1(NC(=O)[C@@H]1C[C@@H]2CN1C(=O)[C@H](C(C)(C)C)NC(=O)O[C@@H]1C[C@H]1CCCCCc1nc3ccc(OC)cc3nc1O2)C(=O)NS(=O)(=O)C1CC1` [MK-5172], the “EC50 / sensitivity of virus” value in data set [1] is “most sensitive viruses”; in data set [6] (JFH1(2a), numbers only in FIG. 11), “most sensitive viruses”.
For `COc1ccc2c(O[C@@H]3C[C@H]4C(=O)N[C@]5(C(=O)NS(=O)(=O)C6CC6)C[C@H]5/C=C\CCCCN(C)C(=O)[C@@H]4C3)cc(-c3nc(C(C)C)cs3)nc2c1C` [Simeprevir], the “EC50 / sensitivity of virus” value in data set [5] (J8(2b), numbers only in FIG. 11) is listed as “lower EC50”.
Regarding “DH8_LSG: DH8CF containing LSG mutations F1468L/A1676S/D3001G, SEQ ID NO:2”, the HCV infectivity titers in the data set with Huh7.5 cells [8] (1st passage) is given as 3.1-4.2 Log 10 FFU/mL. In addition, in the data set with Huh7.5 cells [8] (1st viral passage), the spread of infection fell in the range of 5 to 8 days. For the same compound, the HCV infectivity titers in the data set with Huh7.5 cells [8] (3rd passage of transfection 1 culture A) is reported as 4.7 Log 10 FFU/mL. In the data set on Huh7.5 cells [7], the HCV infectivity titers was 3.1-3.9 Log 10 FFU/mL, the “HCV positive cells detected” value is at least 1 days and the “spread of infection (≥80% HCV-antigen positive cells)” value was in the range of 36 to 53 days.
As to `Cn1c(C2(NC(=O)c3ccc4c(C5CCCC5)c(-c5ncc(Br)cn5)n(C)c4c3)CCC2)nc2ccc(/C=C/C(=O)O)cc21` [BI207127], the “inhibition of virus” value in data set [1], in data set [2], in data set [3], in data set [4], in data set [5] and in data set [6] was “inhibit all viruses in a dose dependent manner” each time. Besides, the “EC50 / sensitivity of virus” value in data set [1] was “most sensitive virus”.
Regarding “DH8_LSG/L884P/V1951A/I2440T/L3021F: efficient full-length infectious DH8 recombinant, SEQ ID NO 7, KF420337”, the values for the HCV infectivity titers with Huh7.5 cells [8] (2nd passage) and in the data set on Huh7.5 cells [7] were 3.9 Log 10 FFU/mL and 3.8 Log 10 FFU/mL, respectively. Also, the “spread of infection (≥80% HCV-antigen positive cells)” value with Huh7.5 cells [7] is 6 days.
Turning to “J8_LSG/L758S/A1790T/V1951A/I2440T: efficient J8 virus with authentic NS3 protease, SEQ ID NO 15, KF420339”, in the data set with Huh7.5 cells [7], the HCV infectivity titers amounted to 3.8 Log 10 FFU/mL and the “spread of infection (≥80% HCV-antigen positive cells)” value came out at 5 days.
As for `CC(C)C(=O)OC[C@H]1O[C@@H](n2ccc(N)nc2=O)[C@](C)(F)[C@@H]1OC(=O)C(C)C` [Mericitabine], the “inhibition of virus” value in data set [1] is “inhibited 1a, 2a, and 2b viruses in a dose-dependent manner”; in data set [2], “inhibited 1a, 2a, and 2b viruses in a dose-dependent manner”; in data set [3], “inhibited 1a, 2a, and 2b viruses in a dose-dependent manner”; in data set [4] it was “inhibited 1a, 2a, and 2b viruses in a dose-dependent manner”; in data set [5] it was “inhibited 1a, 2a, and 2b viruses in a dose-dependent manner”; in data set [6] it was “inhibited 1a, 2a, and 2b viruses in a dose-dependent manner”. The “EC50 / sensitivity of virus” value in data set [3] is “most sensitive virus”.
Take `CC(C)OC(=O)[C@H](C)N[P@](=O)(OC[C@H]1O[C@@H](n2ccc(=O)[nH]c2=O)[C@](C)(F)[C@@H]1O)Oc1ccccc1` [Sofosbuvir]: the “inhibition of virus” value in data set [1] was “inhibited 1a, 2a, and 2b viruses in a dose-dependent manner”; in data set [2], “inhibited 1a, 2a, and 2b viruses in a dose-dependent manner”; in data set [3], “inhibited 1a, 2a, and 2b viruses in a dose-dependent manner”; in data set [4], “inhibited 1a, 2a, and 2b viruses in a dose-dependent manner”; in data set [5], “inhibited 1a, 2a, and 2b viruses in a dose-dependent manner”; in data set [6] it was “inhibited 1a, 2a, and 2b viruses in a dose-dependent manner”. Also, the “EC50 / sensitivity of virus” value in data set [3] is given as “most sensitive virus”.
With `CCc1cc(CC[C@]2(C3CCCC3)CC(O)=C(Cc3nc4nc(C)cc(C)n4n3)C(=O)O2)cc(CC)n1` [Filibuvir], the “inhibition of virus” value in data set [1] is “inhibited TN(1a) in a dose dependent manner”; in data set [2] it was “no or very limited inhibition; also recorded: not inhibited”; in data set [3], “no or very limited inhibition; also recorded: not inhibited”; in data set [4], “no or very limited inhibition; also recorded: not inhibited”; in data set [5] it was “no or very limited inhibition; also recorded: not inhibited”; in data set [6], “no or very limited inhibition; also recorded: not inhibited”.
With “J8cc/M292L/L612M/G1154A/N1217Y/Q1763R/I2440T: J8 cell culture, high titer recombinant, SEQ ID NO 14, KF420338”, in the data set with Huh7.5 cells [7], the HCV infectivity titers was 4.7 Log 10 FFU/mL and the “spread of infection (≥80% HCV-antigen positive cells)” value is 3 days.
Regarding “DH8_LSG/L758S/A1790T/V1951A/I2439T: DH8 full-length recombinant named DH8cc, SEQ ID NO 8, KF420336”, the HCV infectivity titers in the data set on Huh7.5 cells [8] (1st passage) is reported as 4.4 Log 10 FFU/mL; in the data set on Huh7.5 cells [8] (2nd passage), 4.3 Log 10 FFU/mL; in the data set with Huh7.5 cells [7], 4.1 Log 10 FFU/mL. Moreover, in the data set on Huh7.5 cells [7], the “spread of infection (≥80% HCV-antigen positive cells)” value is 6 days.
